TGI data for eight molecules are collected here from PubChem BioAssay (NCI).

Some test systems named below: MDA-MB-231 breast; HCT-116 colon; HT29 colon; CCRF-CEM leukemia; HCC-2998 colon; COLO 205 colon; SK-MEL-2 melanoma; OVCAR-4 ovarian; MCF7 breast; M14 melanoma; MALME-3M melanoma; UACC-257 melanoma; T-47D breast; 786-0 renal; UACC-62 melanoma; MDA-N; SR leukemia; NCI-H522 lung; A498 renal.
Common to all, as to test: NCI anticancer screen, dose series, 48 h

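Step 1: Grow cells in 96-well plates. Step 2: Expose to compound for 48 hours at 5 concentrations. Step 3: Interpolate endpoints linearly; if unreached, use highest concentration. The concentration for full growth arrest is given as TGI.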

As for `Cc1nc2c(cc1C(=O)N/N=C/c1ccc([N+](=O)[O-])cc1)c(=O)n(C)c(=O)n2C`, the TGI is 65.7 µM with MDA-MB-231 breast; more than 100 µM with HCT-116 colon; more than 100 µM with HT29 colon; more than 100 µM in the test on CCRF-CEM leukemia; more than 100 µM in the test with HCC-2998 colon; more than 100 µM with COLO 205 colon. Also, the TGI in the test with SK-MEL-2 melanoma, with OVCAR-4 ovarian, in the test with MCF7 breast, with M14 melanoma, in the test with MALME-3M melanoma and with UACC-257 melanoma was more than 100 µM in each case. For the same molecule, the TGI in the test with T-47D breast, with 786-0 renal, with UACC-62 melanoma and with MDA-N was more than 100 µM each time.

Take `CSc1cc(Br)ccc1-n1c(C(=O)c2ccccc2)c(SC)n(-c2ccccc2)c1=O`: the TGI in the test with MDA-MB-231 breast, in the test on HCT-116 colon, in the test on HT29 colon, with SR leukemia, in the test on NCI-H522 lung and with HCC-2998 colon was more than 100 µM throughout. Moreover, the TGI in the test with COLO 205 colon, in the test with OVCAR-4 ovarian, in the test on MCF7 breast, in the test with M14 melanoma, in the test on UACC-257 melanoma and in the test on 786-0 renal was more than 100 µM throughout. Moreover, the TGI in the test on UACC-62 melanoma and with MDA-N was more than 100 µM each time.

Turning to `O=C(COc1ccc(OCC(=O)NNC2=NC(c3cc(F)c(Cl)cc3Cl)CS2)c(Cl)c1)NNC1=NC(c2cc(F)c(Cl)cc2Cl)CS1` (stereo not given), the TGI is 54.5 µM in the test with MDA-MB-231 breast; more than 100 µM in the test on HCT-116 colon; 59.3 µM with HT29 colon; more than 100 µM in the test on SR leukemia; 34.5 µM in the test with NCI-H522 lung; more than 100 µM in the test with CCRF-CEM leukemia. For the same molecule, the TGI in the test on COLO 205 colon was more than 100 µM; with SK-MEL-2 melanoma, more than 100 µM; with OVCAR-4 ovarian, 40.4 µM; in the test on MCF7 breast it was 34.6 µM; with M14 melanoma, more than 100 µM; with MALME-3M melanoma, more than 100 µM. In addition, the TGI in the test on A498 renal is 56.2 µM; with UACC-257 melanoma, more than 100 µM; in the test with 786-0 renal it was more than 100 µM; in the test with UACC-62 melanoma, 40.4 µM; in the test on MDA-N it was 92.9 µM.

Consider `Cc1ccc(Nc2[nH]c(=O)[nH]c(=O)c2C)cc1Cl`, for which the TGI in the test on MDA-MB-231 breast, with HCT-116 colon, with HT29 colon, in the test with NCI-H522 lung, in the test with HCC-2998 colon and in the test on COLO 205 colon was more than 100 µM throughout. For the same molecule, the TGI was more than 100 µM with SK-MEL-2 melanoma; more than 100 µM in the test with OVCAR-4 ovarian; 59.7 µM in the test on MCF7 breast; more than 100 µM in the test with M14 melanoma; more than 100 µM in the test with MALME-3M melanoma; more than 100 µM in the test with A498 renal. The TGI with UACC-257 melanoma, in the test on T-47D breast, in the test on 786-0 renal, in the test on UACC-62 melanoma and in the test on MDA-N was more than 100 µM throughout.

Consider `O=c1c(C2=NCCC2)c(-c2ccc[nH]2)[nH]n1-c1ccccc1`, for which the TGI in the test with MDA-MB-231 breast, in the test with HCT-116 colon, in the test with HT29 colon, with NCI-H522 lung, in the test with CCRF-CEM leukemia and with COLO 205 colon was more than 100 µM each time. Further, the TGI in the test on SK-MEL-2 melanoma, in the test with OVCAR-4 ovarian, in the test with M14 melanoma, in the test with MALME-3M melanoma, in the test on A498 renal and in the test with UACC-257 melanoma was more than 100 µM each time. Moreover, the TGI with T-47D breast, in the test with 786-0 renal, in the test on UACC-62 melanoma and in the test on MDA-N was more than 100 µM in each case.

As for `CCOC(=O)C(=[N+]=[N-])C(=O)CN1C(=O)C2CC(C)=C(C)CC2C1O` (stereo not given), the TGI in the test on HCT-116 colon, in the test with HT29 colon, in the test with SR leukemia, with NCI-H522 lung, with CCRF-CEM leukemia and in the test on HCC-2998 colon was more than 100 µM each time. Also, the TGI in the test with COLO 205 colon, in the test on SK-MEL-2 melanoma, with MCF7 breast, in the test on M14 melanoma, in the test on MALME-3M melanoma and in the test with UACC-257 melanoma was more than 100 µM in each case. Also, the TGI in the test with 786-0 renal, in the test with UACC-62 melanoma and in the test with MDA-N was more than 100 µM each time.

For the molecule `O=C(O)CCNC(=O)c1cc(N(CCBr)CCBr)c([N+](=O)[O-])cc1[N+](=O)[O-]`, the TGI in the test with MDA-MB-231 breast, with HCT-116 colon, in the test with HT29 colon, with SR leukemia, in the test on NCI-H522 lung and with CCRF-CEM leukemia was more than 100 µM in each case. Further, the TGI in the test on HCC-2998 colon, with COLO 205 colon, in the test on SK-MEL-2 melanoma, with OVCAR-4 ovarian, in the test with MCF7 breast and with M14 melanoma was more than 100 µM throughout. For the same molecule, the TGI with MALME-3M melanoma, with A498 renal, in the test with UACC-257 melanoma, in the test on 786-0 renal and in the test with MDA-N was more than 100 µM each time.

On to `COc1cccc(CCNc2c(C#N)c3nc4ccccc4n3c3ccccc23)c1`, for which the TGI with MDA-MB-231 breast was more than 100 µM; in the test with HCT-116 colon, more than 61.5 µM; with HT29 colon, more than 100 µM; in the test on SR leukemia, more than 100 µM; with NCI-H522 lung it was 0.397 µM; with CCRF-CEM leukemia, more than 100 µM. Besides, the TGI with HCC-2998 colon is more than 100 µM; in the test with COLO 205 colon, more than 47.4 µM; with SK-MEL-2 melanoma, more than 100 µM; in the test with OVCAR-4 ovarian, more than 100 µM; with MCF7 breast it was more than 100 µM; with M14 melanoma, more than 100 µM. For the same molecule, the TGI is more than 100 µM with MALME-3M melanoma; more than 26.2 µM with A498 renal; more than 100 µM in the test with UACC-257 melanoma; more than 52.6 µM in the test with T-47D breast; more than 75.9 µM in the test with 786-0 renal; more than 100 µM in the test with UACC-62 melanoma.
